Source: publication PMC10269561, “Absence of Clinically Meaningful Drug-Drug Interactions with Rezafungin: Outcome of Investigations” (Microbiology Spectrum, 2023)
Numbered stars: 1 amine (or outer) side, 2 acyl side, 3 side chain; on linkers, the order of the positions; unused ones are H or OH. Bridge positions count the residues as written; N and C are the ends. Square brackets hold non-standard residues; d marks the D form. Peptide text beside a SMILES is read from it. * marks the point of attachment. Orn(4R-OH,5R-OCH2CH2NMe3+) = C[N+](C)(C)CCO[C@@H](N[*:3])[C@H](O)C[C@H](N[*:1])C(=O)[*:2]; pTerphenylCO(4''-OnC5H11) = CCCCCOc1ccc(-c2ccc(-c3ccc(C(=O)*)cc3)cc2)cc1; hTyr(3S-OH,4S-OH) = N[C@H](C(=O)O)[C@H](O)[C@@H](O)c1ccc(O)cc1; Pro(3S-OH,4S-Me) = C[C@H]1CN[C@H](C(=O)O)[C@H]1O; Hyp = O=C(O)[C@@H]1C[C@@H](O)CN1

Experiments:
Format in all cases: in vitro ADME
[1] = tested on: Caco-2 epithelial monolayers; experiment: NC-049 membrane permeability in Caco-2 monolayers; conditions: Caco-2 epithelial monolayers expressing human P-gp and BCRP; both transport directions, in the absence and presence of inhibitors; study NC-049
Excerpt: (§1) Microbiology Spectrum Supplementary materials
(§2) Table S 4Summary of initial in vitro assessments […]
(§3) whether rezafungin can induce CYP isoforms 1A2, 2B6, or 3A4. mRNA expression) of CYP1A2 and CYP2B6, and, in the case of […]
(§4) Abbreviations: ABC = ATP binding cassette; BCRP = breast cancer resistance protein; BSEP = bile salt export pump; CYP = cytochrome P450; MATE = multidrug and toxic compound extrusion; MDCK = Madin-Darby canine kidney; MDR = multidrug resistance protein; mRNA = messenger ribonucleic acid; OAT = organic anion transporter; OATP = organic anion transporter protein; OCT – organic cation transporter; OCTN = organic cation transporter novel; P-gp = P-glycoprotein; SLC = solute carrier.

human OATP1B1 = human OATP1B1 (Homo sapiens, UniProt Q9Y6L6); experiment: NC-152 transporter inhibition, OATP1B1; conditions: in vitro cell test system
Excerpt: as §1, §2, §3, §4

human OATP1B3 = human OATP1B3 (Homo sapiens, UniProt Q9NPD5); experiment: NC-152 transporter inhibition, OATP1B3
Excerpt: Abbreviations: ABC = ATP binding cassette; BCRP = breast cancer resistance protein; BSEP = bile salt export pump; CYP = cytochrome P450; MATE =
multidrug and toxic compound extrusion; MDCK = Madin-Darby canine kidney; MDR = multidrug resistance protein; mRNA = messenger ribonucleic acid;
OAT = organic anion transporter; OATP = organic anion transporter protein; OCT – organic cation transporter; OCTN = organic cation transporter novel; P-gp =
P-glycoprotein; SLC = solute carrier.

human MATE2-K = human MATE2-K (Homo sapiens, UniProt Q86VL8); experiment: NC-152 transporter inhibition, MATE2-K; conditions: in vitro cell test system
Excerpt: as §1, §2, §3, §4

BCRP = BCRP (Homo sapiens, UniProt Q9UNQ0); experiment: NC-160 substrate interaction, BCRP; conditions: efflux (ABC) transporter
Excerpt: as §1, §2, §3, §4

MDR1 = MDR1 (Homo sapiens, UniProt P08183); experiment: NC-160 substrate interaction, MDR1; conditions: efflux (ABC) transporter
Excerpt: as §1, §2, §3, §4

OCT1 = biological target: T1, OCT1 (Homo sapiens, UniProt O15245); experiment: NC-160 substrate interaction, OCT1; conditions: uptake SLC transporter
T1 sequence (O15245 1-554): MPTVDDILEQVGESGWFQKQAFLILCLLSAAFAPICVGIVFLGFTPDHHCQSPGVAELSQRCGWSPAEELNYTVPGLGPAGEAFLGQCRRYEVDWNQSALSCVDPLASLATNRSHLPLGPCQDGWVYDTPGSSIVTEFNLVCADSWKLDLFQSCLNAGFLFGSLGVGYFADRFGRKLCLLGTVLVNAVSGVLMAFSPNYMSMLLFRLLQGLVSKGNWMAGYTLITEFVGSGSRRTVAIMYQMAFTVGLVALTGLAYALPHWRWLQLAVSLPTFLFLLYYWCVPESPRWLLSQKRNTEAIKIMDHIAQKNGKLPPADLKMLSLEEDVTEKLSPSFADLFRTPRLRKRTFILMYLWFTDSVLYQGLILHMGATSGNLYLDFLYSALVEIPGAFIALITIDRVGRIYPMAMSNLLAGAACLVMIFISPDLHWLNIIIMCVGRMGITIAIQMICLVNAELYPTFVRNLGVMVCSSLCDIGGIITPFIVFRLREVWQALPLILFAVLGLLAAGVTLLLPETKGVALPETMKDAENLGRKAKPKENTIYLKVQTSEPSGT
Excerpt: as §1, §2, §3, §4

OCTN2 = OCTN2 (Homo sapiens, UniProt O76082); experiment: NC-160 substrate interaction, OCTN2; conditions: uptake SLC transporter
Excerpt: as §1, §2, §3, §4

CYP3A4 = CYP3A4 (Homo sapiens, UniProt P08684); experiment: NC-012 CYP450 inhibition screening, recombinant CYP3A4; conditions: benzyloxyresorufin substrate, recombinant human CYP
Excerpt: as §1, §2, §3, §4

Chain of human OATP1B3 (Q9NPD5 whole entry): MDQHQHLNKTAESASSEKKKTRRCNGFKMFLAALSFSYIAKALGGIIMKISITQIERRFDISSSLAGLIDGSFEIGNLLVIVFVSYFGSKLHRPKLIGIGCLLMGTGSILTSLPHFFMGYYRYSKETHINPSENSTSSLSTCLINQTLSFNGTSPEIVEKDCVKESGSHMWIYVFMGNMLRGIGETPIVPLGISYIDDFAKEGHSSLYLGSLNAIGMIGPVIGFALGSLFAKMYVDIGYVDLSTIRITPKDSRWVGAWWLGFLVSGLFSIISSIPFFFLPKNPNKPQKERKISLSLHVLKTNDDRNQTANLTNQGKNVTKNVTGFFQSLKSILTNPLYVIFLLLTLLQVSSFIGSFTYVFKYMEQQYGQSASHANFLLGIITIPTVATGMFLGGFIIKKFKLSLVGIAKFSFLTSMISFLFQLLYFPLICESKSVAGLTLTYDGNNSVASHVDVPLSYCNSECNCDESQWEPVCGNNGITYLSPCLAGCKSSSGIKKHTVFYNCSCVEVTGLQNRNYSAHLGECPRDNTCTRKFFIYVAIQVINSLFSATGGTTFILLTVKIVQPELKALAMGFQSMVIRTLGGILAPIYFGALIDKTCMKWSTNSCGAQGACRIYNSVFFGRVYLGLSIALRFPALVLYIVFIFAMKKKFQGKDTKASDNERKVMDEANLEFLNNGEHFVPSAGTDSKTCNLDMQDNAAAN
Chain of CYP3A4 (P08684 whole entry): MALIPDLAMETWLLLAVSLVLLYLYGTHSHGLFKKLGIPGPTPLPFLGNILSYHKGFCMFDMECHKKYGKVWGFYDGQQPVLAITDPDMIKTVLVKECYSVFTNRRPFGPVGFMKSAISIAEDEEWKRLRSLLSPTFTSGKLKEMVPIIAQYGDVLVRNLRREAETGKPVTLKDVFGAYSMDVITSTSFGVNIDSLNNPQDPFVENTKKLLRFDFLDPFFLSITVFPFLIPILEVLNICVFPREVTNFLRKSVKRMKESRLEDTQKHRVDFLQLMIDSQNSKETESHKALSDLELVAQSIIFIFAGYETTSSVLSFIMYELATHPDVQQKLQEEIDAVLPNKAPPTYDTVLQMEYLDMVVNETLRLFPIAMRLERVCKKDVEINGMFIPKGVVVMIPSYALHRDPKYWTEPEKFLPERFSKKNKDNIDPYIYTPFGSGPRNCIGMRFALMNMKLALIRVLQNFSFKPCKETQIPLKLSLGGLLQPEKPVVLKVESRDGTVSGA
Chain of OCTN2 (O76082 whole entry): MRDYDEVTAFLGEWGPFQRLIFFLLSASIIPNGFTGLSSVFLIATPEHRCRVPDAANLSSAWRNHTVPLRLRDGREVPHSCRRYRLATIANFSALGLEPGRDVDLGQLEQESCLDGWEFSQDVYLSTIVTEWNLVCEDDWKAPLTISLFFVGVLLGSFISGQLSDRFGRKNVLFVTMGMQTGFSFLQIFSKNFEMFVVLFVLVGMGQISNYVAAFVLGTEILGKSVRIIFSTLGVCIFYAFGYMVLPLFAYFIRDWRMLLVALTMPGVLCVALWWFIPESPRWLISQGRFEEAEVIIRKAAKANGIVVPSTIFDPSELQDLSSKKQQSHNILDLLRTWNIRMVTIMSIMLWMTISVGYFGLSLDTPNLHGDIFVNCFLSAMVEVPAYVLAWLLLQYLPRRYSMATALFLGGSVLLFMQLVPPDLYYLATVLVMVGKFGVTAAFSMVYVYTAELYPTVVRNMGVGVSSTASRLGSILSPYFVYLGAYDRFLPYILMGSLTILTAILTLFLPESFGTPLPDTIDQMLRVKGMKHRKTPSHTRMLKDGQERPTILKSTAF
Chain of human MATE2-K (Q86VL8 1-566 isoform Q86VL8-3): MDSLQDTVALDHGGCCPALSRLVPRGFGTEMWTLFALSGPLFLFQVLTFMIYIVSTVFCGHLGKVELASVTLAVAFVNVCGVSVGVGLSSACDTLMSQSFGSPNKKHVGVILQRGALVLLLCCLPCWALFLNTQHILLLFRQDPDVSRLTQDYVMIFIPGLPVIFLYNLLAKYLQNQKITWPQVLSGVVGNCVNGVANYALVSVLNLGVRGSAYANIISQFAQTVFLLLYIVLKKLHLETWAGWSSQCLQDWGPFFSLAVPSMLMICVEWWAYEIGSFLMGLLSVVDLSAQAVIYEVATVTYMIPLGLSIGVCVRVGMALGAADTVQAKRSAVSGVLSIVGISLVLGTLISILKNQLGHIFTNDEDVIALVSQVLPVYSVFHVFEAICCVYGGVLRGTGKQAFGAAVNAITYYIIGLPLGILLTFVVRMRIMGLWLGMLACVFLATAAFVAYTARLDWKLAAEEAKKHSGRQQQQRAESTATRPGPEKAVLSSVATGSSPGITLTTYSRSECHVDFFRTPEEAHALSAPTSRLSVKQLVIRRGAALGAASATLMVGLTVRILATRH
Chain of MDR1 (P08183 whole entry): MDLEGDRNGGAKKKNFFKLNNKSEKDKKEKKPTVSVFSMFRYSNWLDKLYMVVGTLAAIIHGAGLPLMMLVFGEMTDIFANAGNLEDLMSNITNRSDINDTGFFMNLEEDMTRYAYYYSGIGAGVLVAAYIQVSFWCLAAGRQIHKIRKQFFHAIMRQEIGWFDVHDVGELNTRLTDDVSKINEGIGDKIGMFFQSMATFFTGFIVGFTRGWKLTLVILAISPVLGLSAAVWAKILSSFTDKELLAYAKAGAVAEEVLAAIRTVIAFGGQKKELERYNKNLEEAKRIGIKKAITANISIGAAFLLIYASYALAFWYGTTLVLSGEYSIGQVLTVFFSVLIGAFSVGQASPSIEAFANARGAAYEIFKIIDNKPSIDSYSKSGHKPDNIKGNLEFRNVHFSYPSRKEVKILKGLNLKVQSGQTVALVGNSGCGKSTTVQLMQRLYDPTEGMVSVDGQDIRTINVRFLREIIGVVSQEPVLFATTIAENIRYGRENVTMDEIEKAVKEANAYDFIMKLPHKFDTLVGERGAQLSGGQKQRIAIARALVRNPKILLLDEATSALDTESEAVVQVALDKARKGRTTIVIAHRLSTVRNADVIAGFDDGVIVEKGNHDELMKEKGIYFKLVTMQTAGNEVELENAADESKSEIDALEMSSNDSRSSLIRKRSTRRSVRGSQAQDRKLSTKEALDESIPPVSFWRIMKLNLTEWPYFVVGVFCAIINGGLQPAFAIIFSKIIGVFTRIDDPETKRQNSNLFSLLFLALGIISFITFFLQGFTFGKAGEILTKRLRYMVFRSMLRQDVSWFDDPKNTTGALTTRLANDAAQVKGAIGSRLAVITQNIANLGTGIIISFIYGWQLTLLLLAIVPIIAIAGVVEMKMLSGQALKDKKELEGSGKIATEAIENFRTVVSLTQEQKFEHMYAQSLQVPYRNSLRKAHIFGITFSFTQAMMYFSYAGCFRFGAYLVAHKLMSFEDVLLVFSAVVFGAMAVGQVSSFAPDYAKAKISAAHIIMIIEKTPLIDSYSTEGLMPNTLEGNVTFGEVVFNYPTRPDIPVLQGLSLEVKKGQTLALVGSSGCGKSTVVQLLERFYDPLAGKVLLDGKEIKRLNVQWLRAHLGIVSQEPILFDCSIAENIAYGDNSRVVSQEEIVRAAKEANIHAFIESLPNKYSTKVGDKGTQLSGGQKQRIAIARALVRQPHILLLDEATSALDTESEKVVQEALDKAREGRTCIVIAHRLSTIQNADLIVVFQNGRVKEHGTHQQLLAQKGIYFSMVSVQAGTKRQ
Chain of BCRP (Q9UNQ0 whole entry): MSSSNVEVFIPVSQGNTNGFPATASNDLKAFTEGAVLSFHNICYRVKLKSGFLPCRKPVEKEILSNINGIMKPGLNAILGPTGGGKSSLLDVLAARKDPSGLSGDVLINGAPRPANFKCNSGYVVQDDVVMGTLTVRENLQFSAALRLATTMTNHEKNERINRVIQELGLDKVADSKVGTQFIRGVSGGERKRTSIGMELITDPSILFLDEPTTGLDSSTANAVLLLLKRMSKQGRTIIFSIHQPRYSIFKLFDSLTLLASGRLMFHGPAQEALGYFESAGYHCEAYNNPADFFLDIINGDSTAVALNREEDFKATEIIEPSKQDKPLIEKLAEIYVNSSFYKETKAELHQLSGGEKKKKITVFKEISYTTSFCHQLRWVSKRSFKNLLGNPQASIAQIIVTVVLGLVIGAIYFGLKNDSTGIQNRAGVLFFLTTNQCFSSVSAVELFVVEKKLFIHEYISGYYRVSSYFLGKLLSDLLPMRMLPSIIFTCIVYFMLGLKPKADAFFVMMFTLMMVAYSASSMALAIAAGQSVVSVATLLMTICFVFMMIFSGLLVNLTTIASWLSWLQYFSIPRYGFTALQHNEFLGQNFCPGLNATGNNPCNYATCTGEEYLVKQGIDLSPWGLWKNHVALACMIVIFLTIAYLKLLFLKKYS
Chain of human OATP1B1 (Q9Y6L6 whole entry): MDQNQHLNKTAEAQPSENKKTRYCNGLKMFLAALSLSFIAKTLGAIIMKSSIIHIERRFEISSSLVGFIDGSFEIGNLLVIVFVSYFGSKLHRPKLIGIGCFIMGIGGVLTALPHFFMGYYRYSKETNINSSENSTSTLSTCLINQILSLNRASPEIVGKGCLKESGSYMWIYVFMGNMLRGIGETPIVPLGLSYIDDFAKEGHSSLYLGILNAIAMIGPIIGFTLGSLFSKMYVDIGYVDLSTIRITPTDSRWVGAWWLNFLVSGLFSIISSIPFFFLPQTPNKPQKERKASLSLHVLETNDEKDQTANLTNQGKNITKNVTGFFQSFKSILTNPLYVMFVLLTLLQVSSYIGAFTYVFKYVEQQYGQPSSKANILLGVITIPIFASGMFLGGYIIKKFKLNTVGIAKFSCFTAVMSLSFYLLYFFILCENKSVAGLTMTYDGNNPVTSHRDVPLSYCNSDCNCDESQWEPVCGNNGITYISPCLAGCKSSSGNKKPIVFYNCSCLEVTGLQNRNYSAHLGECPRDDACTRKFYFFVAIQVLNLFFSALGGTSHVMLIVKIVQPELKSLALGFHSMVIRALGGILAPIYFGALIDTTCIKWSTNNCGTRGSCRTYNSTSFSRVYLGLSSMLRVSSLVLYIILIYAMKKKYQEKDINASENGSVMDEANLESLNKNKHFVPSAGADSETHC

## CCCCCOc1ccc(-c2ccc(-c3ccc(C(=O)N[C@H]4C[C@@H](O)[C@@H](OCC[N+](C)(C)C)NC(=O)[C@@H]5[C@@H](O)[C@@H](C)CN5C(=O)[C@H]([C@@H](C)O)NC(=O)[C@H]([C@H](O)[C@@H](O)c5ccc(O)cc5)NC(=O)[C@@H]5C[C@@H](O)CN5C(=O)[C@H]([C@@H](C)O)NC4=O)cc3)cc2)cc1 [Rezafungin] ({pTerphenylCO(4''-OnC5H11)}-[Orn(4R-OH,5R-OCH2CH2NMe3+)]T[Hyp][hTyr(3S-OH,4S-OH)]T[Pro(3S-OH,4S-Me)]; lactam 1-C)
[1]
  permeability coefficient: < 0.2 ×10⁻⁶ cm/s
Human OATP1B1
  inhibitor of probe substrate transport mediated via OATP1B1: determined to be an inhibitor
Human OATP1B3; in vitro cell test system, NC-152
  inhibitor of probe substrate transport mediated via OATP1B3: determined to be an inhibitor
Human OATP1B3; initial in vitro studies, read-out: IC50, OATP-1B3 uptake transporter (moderate inhibition)
  IC50: > 6 µM
Human MATE2-K
  inhibitor of probe substrate transport mediated via MATE2-K: determined to be an inhibitor
BCRP
  substrate of BCRP: not a substrate
MDR1
  substrate of MDR1: not a substrate
OCT1
  substrate of OCT1: not a substrate
OCTN2
  substrate of OCTN2: not a substrate
CYP3A4
  inhibition at 10 µM: 81%
